Positions of bridges follow the written chain, without caps; N, C: chain ends. Residues, ends and D or L forms follow the SMILES beside them.
Legend:
Experiment in all cases: cell-based
hNav1.3 = hNav1.3 (Homo sapiens, UniProt Q9NY46); conditions: IonWorks Quattro, use-dependent block, hNav1.3; read-out: IWQ Use Nav1.3
hNav1.5 = hNav1.5 (Homo sapiens, UniProt Q14524); conditions: IonWorks Quattro, use-dependent block, hNav1.5; read-out: IWQ Use Nav1.5
hNav1.7 = hNav1.7 (Homo sapiens, UniProt Q15858); type: cell-based; conditions: IonWorks Quattro, use-dependent block, hNav1.7; read-out: IWQ Use Nav1.7

Measured: IC50

hNav1.3, sequence (Q9NY46 whole entry, looked up): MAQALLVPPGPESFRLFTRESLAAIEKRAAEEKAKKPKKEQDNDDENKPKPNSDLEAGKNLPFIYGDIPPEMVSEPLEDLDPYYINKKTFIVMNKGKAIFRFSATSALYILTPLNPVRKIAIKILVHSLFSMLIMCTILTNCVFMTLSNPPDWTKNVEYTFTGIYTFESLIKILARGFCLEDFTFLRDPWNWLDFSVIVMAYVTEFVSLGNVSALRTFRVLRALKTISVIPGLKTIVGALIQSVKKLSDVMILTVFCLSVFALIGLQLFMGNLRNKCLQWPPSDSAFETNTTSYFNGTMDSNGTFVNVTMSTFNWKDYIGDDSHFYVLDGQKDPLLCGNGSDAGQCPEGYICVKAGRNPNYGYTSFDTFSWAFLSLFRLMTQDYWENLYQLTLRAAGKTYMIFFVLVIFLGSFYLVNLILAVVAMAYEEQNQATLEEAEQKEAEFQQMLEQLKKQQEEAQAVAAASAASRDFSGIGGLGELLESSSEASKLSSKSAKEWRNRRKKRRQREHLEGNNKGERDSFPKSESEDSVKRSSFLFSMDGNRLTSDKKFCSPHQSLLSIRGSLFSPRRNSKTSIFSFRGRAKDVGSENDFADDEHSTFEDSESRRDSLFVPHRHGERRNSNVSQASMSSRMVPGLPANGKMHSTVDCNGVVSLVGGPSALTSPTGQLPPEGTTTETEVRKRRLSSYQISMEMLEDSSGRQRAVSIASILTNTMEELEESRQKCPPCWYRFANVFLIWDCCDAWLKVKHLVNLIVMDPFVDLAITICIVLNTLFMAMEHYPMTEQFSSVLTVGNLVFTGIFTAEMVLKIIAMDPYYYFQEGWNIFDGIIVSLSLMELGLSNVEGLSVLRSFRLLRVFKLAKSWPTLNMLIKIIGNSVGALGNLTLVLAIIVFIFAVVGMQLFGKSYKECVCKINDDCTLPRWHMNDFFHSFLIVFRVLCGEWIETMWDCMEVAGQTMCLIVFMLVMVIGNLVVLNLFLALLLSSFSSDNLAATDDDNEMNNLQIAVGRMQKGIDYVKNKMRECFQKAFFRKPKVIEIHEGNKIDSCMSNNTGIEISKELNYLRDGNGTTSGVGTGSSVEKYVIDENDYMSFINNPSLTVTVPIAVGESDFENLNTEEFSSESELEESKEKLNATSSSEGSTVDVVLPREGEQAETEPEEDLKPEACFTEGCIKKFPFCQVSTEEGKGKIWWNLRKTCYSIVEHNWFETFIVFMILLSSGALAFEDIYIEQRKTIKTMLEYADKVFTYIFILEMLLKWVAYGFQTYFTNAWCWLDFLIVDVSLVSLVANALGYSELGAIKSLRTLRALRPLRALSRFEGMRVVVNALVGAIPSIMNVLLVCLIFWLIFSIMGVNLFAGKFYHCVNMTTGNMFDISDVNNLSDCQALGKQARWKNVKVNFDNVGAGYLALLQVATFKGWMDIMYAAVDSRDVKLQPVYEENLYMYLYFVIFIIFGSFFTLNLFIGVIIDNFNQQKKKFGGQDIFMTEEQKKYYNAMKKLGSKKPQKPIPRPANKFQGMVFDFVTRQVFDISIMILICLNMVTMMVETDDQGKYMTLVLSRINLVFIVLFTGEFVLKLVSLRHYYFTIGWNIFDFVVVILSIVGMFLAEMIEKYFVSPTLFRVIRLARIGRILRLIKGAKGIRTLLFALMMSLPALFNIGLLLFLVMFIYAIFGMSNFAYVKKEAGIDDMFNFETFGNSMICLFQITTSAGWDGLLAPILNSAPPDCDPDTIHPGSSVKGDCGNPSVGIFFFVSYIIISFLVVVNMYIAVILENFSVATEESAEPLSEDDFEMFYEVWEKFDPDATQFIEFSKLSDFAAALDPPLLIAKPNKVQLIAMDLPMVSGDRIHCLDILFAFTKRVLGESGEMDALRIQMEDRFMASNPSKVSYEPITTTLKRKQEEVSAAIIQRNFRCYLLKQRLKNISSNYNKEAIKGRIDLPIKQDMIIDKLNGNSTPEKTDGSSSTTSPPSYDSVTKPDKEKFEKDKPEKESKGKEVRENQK
hNav1.7, sequence (Q15858 whole entry, looked up): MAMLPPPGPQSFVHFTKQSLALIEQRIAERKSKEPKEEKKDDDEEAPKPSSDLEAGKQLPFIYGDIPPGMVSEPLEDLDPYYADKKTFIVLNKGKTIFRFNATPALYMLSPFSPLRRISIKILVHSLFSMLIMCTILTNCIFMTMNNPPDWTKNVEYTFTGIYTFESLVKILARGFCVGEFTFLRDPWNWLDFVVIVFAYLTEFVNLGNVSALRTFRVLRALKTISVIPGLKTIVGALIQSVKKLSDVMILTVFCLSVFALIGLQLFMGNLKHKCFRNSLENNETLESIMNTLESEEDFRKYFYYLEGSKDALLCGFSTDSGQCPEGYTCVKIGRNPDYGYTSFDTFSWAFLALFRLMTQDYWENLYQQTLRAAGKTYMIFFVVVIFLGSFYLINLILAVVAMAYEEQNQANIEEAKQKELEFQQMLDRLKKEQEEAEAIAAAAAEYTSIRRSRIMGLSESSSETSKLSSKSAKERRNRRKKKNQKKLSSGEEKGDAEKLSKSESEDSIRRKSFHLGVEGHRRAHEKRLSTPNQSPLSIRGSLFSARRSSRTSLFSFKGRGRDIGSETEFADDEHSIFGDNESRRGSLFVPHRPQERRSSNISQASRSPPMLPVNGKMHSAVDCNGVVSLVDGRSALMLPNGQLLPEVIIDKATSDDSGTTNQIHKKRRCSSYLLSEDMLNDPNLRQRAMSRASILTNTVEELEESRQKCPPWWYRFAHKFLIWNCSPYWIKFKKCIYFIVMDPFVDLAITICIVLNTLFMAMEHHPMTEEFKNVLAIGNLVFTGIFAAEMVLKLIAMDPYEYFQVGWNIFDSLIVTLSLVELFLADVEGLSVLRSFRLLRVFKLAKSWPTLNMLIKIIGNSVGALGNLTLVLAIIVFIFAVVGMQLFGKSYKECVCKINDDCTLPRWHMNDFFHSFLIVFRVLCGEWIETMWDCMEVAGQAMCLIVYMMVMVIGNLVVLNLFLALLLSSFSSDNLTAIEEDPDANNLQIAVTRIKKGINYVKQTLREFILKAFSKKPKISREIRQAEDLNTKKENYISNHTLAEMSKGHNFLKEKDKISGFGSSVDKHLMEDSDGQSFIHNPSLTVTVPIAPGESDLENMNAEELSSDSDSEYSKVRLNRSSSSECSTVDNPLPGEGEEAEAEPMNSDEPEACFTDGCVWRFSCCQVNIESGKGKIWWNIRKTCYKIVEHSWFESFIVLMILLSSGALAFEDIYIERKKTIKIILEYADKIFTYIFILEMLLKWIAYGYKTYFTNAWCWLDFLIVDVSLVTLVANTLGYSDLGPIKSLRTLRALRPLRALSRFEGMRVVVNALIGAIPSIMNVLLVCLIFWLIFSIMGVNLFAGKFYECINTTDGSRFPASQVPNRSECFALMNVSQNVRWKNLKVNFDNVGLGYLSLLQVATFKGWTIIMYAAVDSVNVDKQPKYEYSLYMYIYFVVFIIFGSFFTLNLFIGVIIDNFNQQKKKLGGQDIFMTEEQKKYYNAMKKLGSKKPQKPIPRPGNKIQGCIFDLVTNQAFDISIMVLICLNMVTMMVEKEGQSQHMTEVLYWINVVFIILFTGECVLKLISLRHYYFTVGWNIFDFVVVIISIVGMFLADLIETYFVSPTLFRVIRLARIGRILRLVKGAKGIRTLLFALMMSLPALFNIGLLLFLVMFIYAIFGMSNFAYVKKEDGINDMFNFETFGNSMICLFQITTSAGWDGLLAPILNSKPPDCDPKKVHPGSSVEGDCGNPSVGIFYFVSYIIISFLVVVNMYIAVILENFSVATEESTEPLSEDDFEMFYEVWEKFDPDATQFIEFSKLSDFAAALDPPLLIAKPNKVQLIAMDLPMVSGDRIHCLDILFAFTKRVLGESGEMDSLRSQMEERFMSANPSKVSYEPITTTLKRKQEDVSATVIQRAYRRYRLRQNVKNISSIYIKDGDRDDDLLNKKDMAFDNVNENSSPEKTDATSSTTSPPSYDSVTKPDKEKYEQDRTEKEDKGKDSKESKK

CC[C@H](C)[C@@H]1NC(=O)[C@@H]2CSSC[C@@H]3NC(=O)[C@H](C(C)C)NC(=O)[C@H](CC(C)C)NC(=O)[C@H](CC(N)=O)NC(=O)[C@@H]4CCCN4C(=O)[C@H](CCCNC(=N)N)NC(=O)[C@H](CSSC[C@H](NC(=O)[C@@H](N)CC(=O)O)C(=O)N[C@@H](CC(C)C)C(=O)NCC(=O)N[C@@H](C)C(=O)N[C@@H](CCSC)C(=O)N[C@@H](CCCNC(=N)N)C(=O)N[C@@H](CCCCN)C(=O)N2)NC(=O)[C@H](CSSC[C@@H](C(=O)N[C@@H](CCCCN)C(=O)N[C@@H](C)C(=O)N[C@H](C(=O)N[C@@H](Cc2ccccc2)C(N)=O)C(C)C)NC(=O)[C@H](Cc2c[nH]c4ccccc24)NC(=O)[C@H](CCCCN)NC(=O)[C@H](Cc2c[nH]cn2)NC(=O)[C@H]([C@@H](C)O)NC(=O)[C@H](CCCNC(=N)N)NC(=O)[C@H](CO)NC3=O)NC(=O)[C@H](CCCCN)NC(=O)[C@H](CC(=O)O)NC(=O)[C@H](CC(N)=O)NC(=O)[C@H](CC(=O)O)NC(=O)[C@@H]2CCCN2C1=O [compound 432] (H-DCLGAMRKCIPDNDKCCRPNLVCSRTHKWCKAVF-NH2; disulfide 2-17, 9-23, 16-30)
> 5 µM: all assays above

CC[C@H](C)[C@@H]1NC(=O)[C@@H]2CSSC[C@@H]3NC(=O)[C@H](C(C)C)NC(=O)[C@H](CC(C)C)NC(=O)[C@H](CC(N)=O)NC(=O)[C@@H]4CCCN4C(=O)[C@H](CCCNC(=N)N)NC(=O)[C@H](CSSC[C@H](NC(=O)[C@@H](N)CC(=O)O)C(=O)N[C@@H](CC(C)C)C(=O)NCC(=O)N[C@@H](C)C(=O)N[C@@H](CCSC)C(=O)N[C@@H](CCCNC(=N)N)C(=O)N[C@@H](CCCCN)C(=O)N2)NC(=O)[C@H](CSSC[C@@H](C(=O)N[C@@H](C)C(=O)N[C@@H](Cc2ccc(O)cc2)C(=O)N[C@H](C(=O)N[C@@H](Cc2ccccc2)C(N)=O)C(C)C)NC(=O)[C@H](Cc2c[nH]c4ccccc24)NC(=O)[C@H](CCCCN)NC(=O)[C@H](Cc2c[nH]cn2)NC(=O)[C@H]([C@@H](C)O)NC(=O)[C@H](CCCNC(=N)N)NC(=O)[C@H](CO)NC3=O)NC(=O)[C@H](CCCCN)NC(=O)[C@H](CC(=O)O)NC(=O)[C@H](CC(N)=O)NC(=O)[C@H](CC(=O)O)NC(=O)[C@@H]2CCCN2C1=O [compound 433] (H-DCLGAMRKCIPDNDKCCRPNLVCSRTHKWCAYVF-NH2; disulfide 2-17, 9-23, 16-30)
> 5 µM: all assays above

CC[C@H](C)[C@@H]1NC(=O)[C@@H]2CSSC[C@@H]3NC(=O)[C@H](C(C)C)NC(=O)[C@H](CC(C)C)NC(=O)[C@H](CC(N)=O)NC(=O)[C@@H]4CCCN4C(=O)[C@H](CCCNC(=N)N)NC(=O)[C@H](CSSC[C@H](NC(=O)[C@@H](N)CC(=O)O)C(=O)N[C@@H](CC(C)C)C(=O)NCC(=O)N[C@@H](C)C(=O)N[C@@H](CCSC)C(=O)N[C@@H](CCCNC(=N)N)C(=O)N[C@@H](CCCCN)C(=O)N2)NC(=O)[C@H](CSSC[C@@H](C(=O)N[C@@H](CCCCN)C(=O)N[C@@H](Cc2ccc(O)cc2)C(=O)N[C@H](C(=O)N[C@@H](Cc2ccccc2)C(N)=O)C(C)C)NC(=O)[C@H](C)NC(=O)[C@H](CCCCN)NC(=O)[C@H](Cc2c[nH]cn2)NC(=O)[C@H]([C@@H](C)O)NC(=O)[C@H](CCCNC(=N)N)NC(=O)[C@H](CO)NC3=O)NC(=O)[C@H](CCCCN)NC(=O)[C@H](CC(=O)O)NC(=O)[C@H](CC(N)=O)NC(=O)[C@H](CC(=O)O)NC(=O)[C@@H]2CCCN2C1=O [compound 434] (H-DCLGAMRKCIPDNDKCCRPNLVCSRTHKACKYVF-NH2; disulfide 2-17, 9-23, 16-30)
> 5 µM: all assays above

Source: US9340590B2 (priority 2011, dated 2016)
